Assay results: patent US10160771B2, “Hepatitis C virus inhibitors and uses thereof in preparation of drugs” (priority 2014, dated 2018)

Key:
[1] = system: HCV genotype 1a (HCV-1a) replicon cells; test: HCV genotype 1a replicon luciferase assay (EC50); format: cell-based, hepatitis C virus genotype 1a (H77 clone); conditions: Hepatitis C virus, 72 h, 3 days, luciferase (Bright-Glo)
How it was run: (§1)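 Compounds were dispensed as 5-fold, 6-point series (highest 100, 10 or 1 nM; 0.5% DMSO) in duplicate. Replicon cells expressing luciferase (H77-derived for 1a, Con1-derived for 1b) were added at 8000 per well and grown 3 days. Luciferase activity was then measured and EC50 fitted.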

[2] = system: HCV genotype 1b (HCV-1b) replicon cells; test: HCV genotype 1b replicon luciferase assay (EC50); format: cell-based, hepatitis C virus genotype 1b (Con1 clone); conditions: 3 days, luciferase (Bright-Glo)
How it was run: as §1

[3] = Cell Titer-fluor cell activity assay in HCV-1b replicon cells (CC50); format: cell-based
Experimental: The EC50 and CC50 values of anti-HCV compounds were determined by HCV genotype 1a (HCV-1a) and 1B (HCV-1b) stable transfer replication (replicon) cells. The source of genotype 1a replicon is H77 clones containing K1691R, K2040R and S2204I adaptive mutations. The source of genotype 1b replicon is Con1 clones containing E1202G, T1280I and K1846T adaptive mutations.
HCV Replicon Cell Lines: HCV-1a and HCV-1b Cells
The compound powder was dissolved in 100% DMSO. Then the compound was diluted 5 times with 6 points, and added into the cell plate with Echo liquid handler. Ensure the final concentration of DMSO was 0.5%. Each compound was tested in double holes. Maximum initial concentration was 100, 10 or 1 nM, 5 times dilution, 6 points.
b) Cell Culture (HCV-1a or HCV-1b Replicon Cell):
1) absorbing the culture supernatant of the cell culture and washing the cells with 10 mL PBS.
2) adding preheated pancreatin to the washed cell culture flasks, rotating culture bottle to make the bottom of the culture bottle uniformly covered by pancreatin, then placed into 37° C., 5% CO2 incubator to digest.
3) suspending cells in each T150 culture flask with 10-15 mL culture medium, absorbing 0.1 mL liquid and diluting 2 times by trypan blue solution as counted.
4) diluting cells to 8×10^4/mL with the culture medium, adding the diluted cells into the compound-containing 96-well plate (Greiner, Cat.#655090) (100 μL/well, 8000 cells/well) with automatic liquid separator (Thermo Scientific). Then place into a 37° C., 5% CO2 incubator for 3 days. Cell control well: no compound, only containing 0.5% DMSO.
5) adding chemiluminescent substrate Cell Titer-fluor to the cell well, after incubation for 30 minutes, detecting the signal by chemiluminescence detection system Envison (Ex at 405 nm and read at 515 nm). The effect of the compounds on the activity of HCV replicon cells was analyzed according to the luminescence data, which was used to calculate the CC50 values.
The EC50 or CC50 values were obtained by nonlinear fitting analysis on inhibition percentage (inh %) data with GraphPad Prism software.

SMILES	EC50 [1] [nM]	EC50 ([2]; Hepatitis C virus, 72 h) [nM]	CC50 at 3 days [3] [nM]	EC50 [2] [nM]
COC(=O)N[C@H](C(=O)N1CCC[C@H]1c1ncc(-c2ccc(-c3ccc(-c4[nH]c([C@@H]5CCCN5C(=O)[C@@H](NC(=O)OC)[C@@H](C)OC)c5c4COC5)cc3)cc2)[nH]1)[C@@H](C)O [AG_105]	0.101 to 1	0.001 to 0.1	> 1	
COC(=O)N[C@H](C(=O)N1CCCC1c1ccc(-c2ccc(-c3ccc(-c4ccc(C5CCCN5C(=O)[C@@H](NC(=O)OC)C(C)C)[nH]4)cc3)cc2)[nH]1)C(C)C (stereo partly drawn) [AG_011]	10 to 100	0.001 to 0.1	> 1	
COC(=O)N[C@H](C(=O)N1CCC[C@H]1c1ncc(-c2ccc(-c3ccc(-c4cnc([C@H]5C6CCC(C6)[C@@H]5C(=O)NCc5nccs5)[nH]4)cc3)cc2)[nH]1)C(C)C (stereo partly drawn) [AA_208_A]	1 to 10	0.001 to 0.1	> 1	
COC(=O)N[C@H](C(=O)N1CCC[C@H]1c1ncc(-c2ccc(-c3ccc(-c4[nH]c([C@@H]5CCCN5C(=O)[C@@H](NC(=O)OC)C(C)C)c5c4CCCC5)cc3)cc2)[nH]1)C(C)C [AG_015_A]	10 to 100	0.001 to 0.1	> 1	
COC(=O)N[C@H](C(=O)N1CCC[C@H]1c1ncc(-c2ccc(-c3ccc(-c4cnc(C5C6CCC(C6)[C@@H]5C(=O)NCc5cnccn5)[nH]4)cc3)cc2)[nH]1)[C@@H](C)OC (stereo partly drawn) [AA_268_A]	0.101 to 1	0.001 to 0.1	> 1	
COC(=O)N[C@H](C(=O)N1CCC[C@H]1c1ncc(-c2ccc(-c3ccc(-c4cnc(C5C6CCC(C6)[C@H]5C(=O)N[C@@H](C)c5ccccc5)[nH]4)cc3)cc2)[nH]1)[C@@H](C)OC (stereo partly drawn) [AA_262_B]	0.101 to 1	0.001 to 0.1	> 1	
COC(=O)N[C@H](C(=O)N1CCC[C@H]1c1ncc(-c2ccc(-c3ccc(-c4cnc([C@@H]5C6CCC(C6)[C@H]5C(=O)NC(C)c5cccnc5)[nH]4)cc3)cc2)[nH]1)C(C)C (stereo partly drawn) [AA_204_B]	1 to 10	0.001 to 0.1	> 1	
COC(=O)N[C@H](C(=O)N1CCC[C@H]1c1ncc(-c2ccc(-c3ccc(-c4cnc([C@@H]5C6CCC(C6)C5C(=O)NCc5cccnc5)[nH]4)cc3)nc2)[nH]1)[C@@H](C)OC (stereo partly drawn) [AA_242_B]	10 to 100	0.101 to 1	> 1	
COC(=O)N[C@H](C(=O)N1CCC[C@H]1c1ncc(-c2ccc(-c3ccc(-c4cnc([C@H]5C6CCC(C6)[C@@H]5C(=O)NCc5cccnc5C5CC5)[nH]4)cc3)cc2)[nH]1)C(C)C (stereo partly drawn) [AA_234_A]	1 to 10	0.001 to 0.1	> 1	
COC(=O)N[C@H](C(=O)N1CCC[C@H]1c1ncc(-c2ccc(-c3ccc(-c4cnc([C@@H]5[C@H]6CC[C@H](C6)[C@H]5C(=O)N[C@@H](C)c5cccnc5)[nH]4)cc3)cc2)[nH]1)C(C)C [AA_204_ENDOA2_A]	0.001 to 0.1	0.001 to 0.1	> 1	
COC(=O)N[C@H](C(=O)N1CCC[C@H]1c1cnc(-c2ccc(-c3ccc(-c4ncc(C5C6CCC(C6)[C@H]5C(=O)N(NC(=O)OC)C(C)C)[nH]4)cc3)cc2C)[nH]1)C(C)C (stereo partly drawn) [AA_169_A]	1 to 10	0.001 to 0.1	> 5	
COC(=O)N[C@H](C(=O)N1CCC[C@H]1c1ncc(-c2ccc(-c3ccc(-c4cnc(C5C6CCC(C6)[C@@H]5C(=O)NCc5ccc(C(F)(F)F)nc5)[nH]4)cc3)cc2)[nH]1)[C@@H](C)OC (stereo partly drawn) [AA_264_A]	1 to 10	0.101 to 1	> 1	
COC(=O)N[C@H](C(=O)N1CCC[C@H]1c1[nH]c(-c2ccc(-c3ccc(-c4cnc([C@@H]5CCCN5C(=O)[C@@H](NC(=O)OC)[C@@H](C)OC)[nH]4)cc3)cc2)c2c1COC2)C(C)C [AG_077]	0.001 to 0.1	0.001 to 0.1	> 5	
COC(=O)N[C@H](C(=O)N1CCC[C@H]1c1ncc(-c2ccc(-c3ccc(-c4cnc([C@@H]5C6CCC(C6)[C@H]5C(=O)NCc5nccs5)[nH]4)cc3)cc2)[nH]1)C(C)C (stereo partly drawn) [AA_208_B]	1 to 10	0.001 to 0.1	> 1	
COC(=O)N[C@H](C(=O)N1CCC[C@H]1c1ncc(-c2ccc(-c3ccc(-c4cnc(C5C6CCC(C6)[C@@H]5C(=O)N[C@H](C)c5cccnc5)[nH]4)cc3)cc2)[nH]1)[C@@H](C)OC (single isomer, unassigned) [AA_253_A]	10 to 100		> 1	0.101 to 1
COC(=O)N[C@H](C(=O)N1CCC[C@H]1c1ncc(-c2ccc(-c3ccc(-c4cnc(C5[C@H]6CC[C@H](C6)[C@H]5C(=O)NCc5cnccn5)[nH]4)cc3)cc2)[nH]1)C(C)C (stereo partly drawn) [AA_206_ENDOA2]	0.101 to 1	0.001 to 0.1	> 1	
COC(=O)NC(C(=O)N1CCC[C@H]1c1ncc(-c2ccc(-c3ccc(-c4cnc(C5CCCC[C@@H]5C(=O)N(NC(=O)OC)C(C)C)[nH]4)cc3)cc2)[nH]1)C1CCOC1 (stereo partly drawn) [AA_122]	10 to 100	0.101 to 1	> 100	
COC(=O)N[C@H](C(=O)N1CCC[C@H]1c1ncc(-c2ccc(-c3ccc(-c4cnc(C5C6CCC(C6)[C@@H]5C(=O)N(C)c5ccccn5)[nH]4)cc3)cc2)[nH]1)[C@@H](C)OC (stereo partly drawn) [AA_247_A]	0.101 to 1	0.001 to 0.1	> 1	
COC(=O)N[C@H](C(=O)N1CCC[C@H]1c1ncc(-c2ccc(-c3ccc(-c4cnc([C@H]5CCCC[C@@H]5C(=O)NC5(c6cccnc6)CC5)[nH]4)cc3)cc2)[nH]1)C(C)C [AA_186]	1 to 10	0.101 to 1	> 5	
COC(=O)N[C@H](C(=O)N1CCC[C@H]1c1ncc(-c2ccc(-c3ccc(-c4cnc([C@@H]5C6CCC(C6)[C@H]5C(=O)NCc5cnccn5)[nH]4)cc3)cc2)[nH]1)C(C)C (stereo partly drawn) [AA_206_B]	1 to 10	0.001 to 0.1	> 1	
COC[C@H](NC(=O)OC)C(=O)N1CCC[C@H]1c1ncc(-c2ccc(-c3ccc(-c4ccc([C@@H]5CCCN5C(=O)[C@@H](NC(=O)OC)C(C)C)[nH]4)cc3)cc2)[nH]1 [AG_100]	0.101 to 1	0.001 to 0.1	> 1	
COC(=O)N[C@H](C(=O)N1CCC[C@H]1c1ncc(-c2ccc(-c3ccc(-c4cnc([C@H]5C6CCC(C6)[C@@H]5C(=O)NCc5ccc(OC)nc5)[nH]4)cc3)cc2)[nH]1)C(C)C (stereo partly drawn) [AA_200_A]	1 to 10	0.001 to 0.1	> 1	
COC(=O)N[C@H](C(=O)N1CCC[C@H]1c1ncc(-c2ccc(-c3ccc(-c4cnc(C5C6CCC(C6)[C@@H]5C(=O)N(NC(=O)OC)C(C)C)[nH]4)cc3)c(OC)c2)[nH]1)C(C)C (stereo partly drawn) [AA_190_A]	10 to 100	0.101 to 1	> 1	
